The test system of assay [1] is RAW264.7. Nature of the assay: Anti-inflammatory activity in mouse RAW264.7 cells assessed as inhibition of LPS-induced nitric oxide production at 10 uM pre-incubated for 2 hrs before LPS stimulation for 18 hrs by Griess reagent based colorimetric method. The format is functional. In general terms: Nitrite, measured by Griess reagent, commonly stands in for NO production.

Assay [2] concerns Mus musculus. Nature of the assay: Anti-inflammatory activity in ICR mouse model of carrageenan-induced edema assessed as inhibition of paw thickness at 10 mg/kg, ip. The note with it: route intraperitoneal. The format is functional.
The subject of assay [3] is RAW264.7. Put plainly: Cytotoxicity against mouse RAW264.7 cells assessed as reduction in cell viability after 24 hrs in absence of LPS by MTT assay. The format is cell-based. The note with it: RAW264.7, 24 h. (Tetrazolium assays rely on reduction of a dye to a coloured formazan, in cell work by metabolically active cells.)
For assay [4], the system named is RAW264.7. Put plainly: Cytotoxicity against mouse RAW264.7 cells assessed as reduction in cell viability after 24 hrs in presence of LPS by MTT assay. The format is cell-based. The note with it: RAW264.7, 24 h.
Assay [5] deals with T1, Nitric oxide synthase, inducible (Mus musculus, UniProt P29477).
T1 sequence (P29477 whole entry): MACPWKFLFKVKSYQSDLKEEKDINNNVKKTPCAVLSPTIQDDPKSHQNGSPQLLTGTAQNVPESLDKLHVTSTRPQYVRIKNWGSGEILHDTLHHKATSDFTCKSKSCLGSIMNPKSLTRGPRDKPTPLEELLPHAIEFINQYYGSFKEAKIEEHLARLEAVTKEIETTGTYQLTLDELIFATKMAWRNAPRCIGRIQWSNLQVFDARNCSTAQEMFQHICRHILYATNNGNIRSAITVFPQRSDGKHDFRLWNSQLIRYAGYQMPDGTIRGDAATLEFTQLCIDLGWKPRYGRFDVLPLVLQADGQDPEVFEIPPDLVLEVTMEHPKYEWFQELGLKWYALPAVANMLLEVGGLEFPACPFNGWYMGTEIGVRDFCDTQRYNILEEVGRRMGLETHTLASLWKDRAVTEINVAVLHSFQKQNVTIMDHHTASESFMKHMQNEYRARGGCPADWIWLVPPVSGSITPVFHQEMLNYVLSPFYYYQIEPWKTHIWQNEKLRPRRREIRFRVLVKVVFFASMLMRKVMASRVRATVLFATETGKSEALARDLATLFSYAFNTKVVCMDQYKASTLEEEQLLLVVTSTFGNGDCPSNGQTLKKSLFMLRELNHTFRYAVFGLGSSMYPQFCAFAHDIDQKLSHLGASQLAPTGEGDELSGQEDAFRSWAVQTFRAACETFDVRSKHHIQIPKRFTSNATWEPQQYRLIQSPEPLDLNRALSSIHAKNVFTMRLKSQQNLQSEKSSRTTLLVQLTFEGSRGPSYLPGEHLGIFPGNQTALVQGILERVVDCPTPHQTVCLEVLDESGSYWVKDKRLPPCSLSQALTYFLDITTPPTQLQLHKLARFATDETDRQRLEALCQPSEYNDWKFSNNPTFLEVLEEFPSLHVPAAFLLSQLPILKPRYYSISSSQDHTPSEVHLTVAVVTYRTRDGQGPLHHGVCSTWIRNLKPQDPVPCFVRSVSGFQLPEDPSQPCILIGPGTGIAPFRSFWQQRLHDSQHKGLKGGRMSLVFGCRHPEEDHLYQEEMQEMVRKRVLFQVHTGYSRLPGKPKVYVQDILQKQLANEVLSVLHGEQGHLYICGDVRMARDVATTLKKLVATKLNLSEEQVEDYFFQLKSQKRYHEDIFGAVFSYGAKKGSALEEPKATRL
Put plainly: Inhibition of iNOS in LPS-stimulated mouse RAW264.7 cells using L-Arginine substrate incubated for 2 hrs by fluorescence spectrometry. The format is cell-based.

Assay [6] deals with Mus musculus. Nature of the assay: Anti-inflammatory activity in ICR mouse model of adjuvant-induced arthritis assessed as reduction in arthritis severity scores at 25 and 50 mg/kg, po dosed once daily from day 17 after vaccination. The format is functional, organism-based. Further details: dose 50 mg/kg.
The test system of assay [7] is Mus musculus. Put plainly: Anti-inflammatory activity in ICR mouse model of adjuvant-induced arthritis assessed as reduction in histopathological changes at 50 mg/kg, po dosed once daily from day 17 after vaccination by H and E staining method. The format is functional, organism-based. Further details: dose 50 mg/kg.
For assay [8], the system named is Mus musculus. Nature of the assay: Anti-inflammatory activity in ICR mouse model of carrageenan-induced edema assessed as inhibition of paw thickness at 25 mg/kg, ip. The format is functional, organism-based. Further details: dose 25 mg/kg. (Carrageenan injected into the paw causes an acute inflammation.)
The subject of assay [9] is Mus musculus. Nature of the assay: Anti-inflammatory activity in ICR mouse model of carrageenan-induced edema assessed as inhibition of paw thickness at 50 mg/kg, ip. The format is functional. The note with it: route intraperitoneal.

pIC50: −log10 of the molar value. Activity calls are given as the source filed them. The rule behind the calls is not given here.

For orientation: inhibition means how much of the control response was suppressed. For `COc1ccc(C2=NN(C(=O)c3ccc(C(F)(F)F)cc3)C(c3cc(OC)c(OC)c(OC)c3)C2)c2c1C=CC(C)(C)O2` (configuration not stated), the inhibition at 10 µM in the assay on RAW264.7 [1] came to 23.1%.

Consider `COc1ccc(C2=NN(c3ccc(C#N)cc3)C(c3cc(OC)c(OC)c(OC)c3)C2)c2c1C=CC(C)(C)O2` (configuration not stated), for which the inhibition at 10 µM with RAW264.7 [1] was 40.8%.

Take `CCCS(=O)(=O)N1N=C(c2ccc(OC)c3c2OC(C)(C)C=C3)CC1c1cc(OC)c(OC)c(OC)c1` (configuration not stated): in the assay on RAW264.7 [1], the inhibition at 10 µM is 40.8%.

As for `COc1ccc(C2=NN(c3ccc(C(=O)O)cc3)C(c3cc(OC)c(OC)c(OC)c3)C2)c2c1C=CC(C)(C)O2` (configuration not stated), in the assay with RAW264.7 [1], the inhibition at 10 µM worked out at 19.4%.

Take `COc1ccc(C2=NNC(c3cc(OC)c(OC)c(OC)c3)C2)c2c1C=CC(C)(C)O2` (configuration not stated): the inhibition at 10 µM with RAW264.7 [1] came out at 49.2%.

The inhibition in vivo is the percentage by which the read-out fell short of the control. As usually defined, the pIC50 is the negative decadic logarithm of the IC50, by convention in mol/L. As to `COc1ccc2c(c1)c(CC(=O)O)c(C)n2C(=O)c1ccc(Cl)cc1` [INDOMETHACIN], the inhibition in vivo at 10 mg/kg in the assay on Mus musculus [2] is 32%. Further, the pIC50 with RAW264.7 [3] is 4.97; with RAW264.7 [4], 5.04; in assay [5], 5.35. In addition, in the assay with RAW264.7 [1], the inhibition at 10 µM turned out to be 60.6%.

`COc1ccc(C2=NN(S(=O)(=O)c3ccc([N+](=O)[O-])cc3)C(c3cc(OC)c(OC)c(OC)c3)C2)c2c1C=CC(C)(C)O2` (configuration not stated): the inhibition at 10 µM in the assay with RAW264.7 [1] is 41%.

For the compound `COc1ccc(C(=O)N2N=C(c3ccc(OC)c4c3OC(C)(C)C=C4)CC2c2cc(OC)c(OC)c(OC)c2)cc1` (configuration not stated), the figures for the pIC50 (in the assay on RAW264.7 [3]; in the assay on RAW264.7 [4]; in [5]) were less than 4.00, less than 4.00 and 4.61, respectively. Besides, the inhibition result in the assay with Mus musculus [6] is “Dose-dependent effect”. Besides, the inhibition result in the assay with Mus musculus [7] and in the assay on Mus musculus [8] was “Active” each time. In addition, the inhibition at 10 µM with RAW264.7 [1] came to 78%. Further, the inhibition in vivo at 50 mg/kg in the assay with Mus musculus [9] is 54.2%.

On to `COc1ccc(C2=NN(C(=O)c3ccccc3C(F)(F)F)C(c3cc(OC)c(OC)c(OC)c3)C2)c2c1C=CC(C)(C)O2` (configuration not stated), for which, in the assay with RAW264.7 [1], the inhibition at 10 µM came out at 18.9%.

As to `COc1ccc(C2=NN(C(=O)c3cc(OC)c(OC)c(OC)c3)C(c3cc(OC)c(OC)c(OC)c3)C2)c2c1C=CC(C)(C)O2` (configuration not stated), the inhibition at 10 µM in the assay on RAW264.7 [1] is 57.2%.

For the compound `COc1ccc(C2=NN(C(=O)CCCl)C(c3cc(OC)c(OC)c(OC)c3)C2)c2c1C=CC(C)(C)O2` (configuration not stated), the inhibition at 10 µM with RAW264.7 [1] worked out at 62.1%.

Take `COc1ccc(C2=NN(C(=O)c3cccc(C(F)(F)F)c3)C(c3cc(OC)c(OC)c(OC)c3)C2)c2c1C=CC(C)(C)O2` (configuration not stated): the inhibition at 10 µM in the assay on RAW264.7 [1] is 22.4%.

On to `CCC(=O)N1N=C(c2ccc(OC)c3c2OC(C)(C)C=C3)CC1c1cc(OC)c(OC)c(OC)c1` (configuration not stated), for which the inhibition at 10 µM in the assay with RAW264.7 [1] stood at 65.9%.

Turning to `COc1ccc(C2=NN(C(=O)c3cccc(Cl)c3)C(c3cc(OC)c(OC)c(OC)c3)C2)c2c1C=CC(C)(C)O2` (configuration not stated), the inhibition at 10 µM in the assay with RAW264.7 [1] amounted to 29.1%.

For the compound `COc1ccc(C2=NN(C(=O)c3cccc(F)c3)C(c3cc(OC)c(OC)c(OC)c3)C2)c2c1C=CC(C)(C)O2` (configuration not stated), the inhibition at 10 µM in the assay with RAW264.7 [1] was 35.1%.

Turning to `COc1ccc(C2=NN(S(=O)(=O)C3CC3)C(c3cc(OC)c(OC)c(OC)c3)C2)c2c1C=CC(C)(C)O2` (configuration not stated), the inhibition at 10 µM in the assay on RAW264.7 [1] is 31.9%.

On to `COc1ccc(C2=NN(S(=O)(=O)c3cc(C)cc(C)c3)C(c3cc(OC)c(OC)c(OC)c3)C2)c2c1C=CC(C)(C)O2` (configuration not stated), for which, in the assay on RAW264.7 [1], the inhibition at 10 µM amounted to 26.9%.

For `COc1ccc(C2=NN(c3ccc(S(N)(=O)=O)cc3)C(c3cc(OC)c(OC)c(OC)c3)C2)c2c1C=CC(C)(C)O2` (configuration not stated), the inhibition at 10 µM in the assay with RAW264.7 [1] came out at 30.5%.

`COc1ccc(C2=NN(c3ccc([N+](=O)[O-])cc3)C(c3cc(OC)c(OC)c(OC)c3)C2)c2c1C=CC(C)(C)O2` (configuration not stated): the inhibition at 10 µM with RAW264.7 [1] turned out to be 15.7%.

As for `COc1ccc(C2=NN(c3ccc(F)cc3)C(c3cc(OC)c(OC)c(OC)c3)C2)c2c1C=CC(C)(C)O2` (configuration not stated), the inhibition at 10 µM with RAW264.7 [1] turned out to be 30.8%.

As to `COc1ccc(C2=NN(c3ccc(C(F)(F)F)cc3)C(c3cc(OC)c(OC)c(OC)c3)C2)c2c1C=CC(C)(C)O2` (configuration not stated), the inhibition at 10 µM in the assay with RAW264.7 [1] turned out to be 14.4%.

As for `COc1ccc(C2=NN(C(=O)C(C)C)C(c3cc(OC)c(OC)c(OC)c3)C2)c2c1C=CC(C)(C)O2` (configuration not stated), the inhibition at 10 µM in the assay on RAW264.7 [1] was found to be 54.2%.

Take `COc1ccc(C2=NN(C(C)=O)C(c3cc(OC)c(OC)c(OC)c3)C2)c2c1C=CC(C)(C)O2` (configuration not stated): the pIC50 in the assay on RAW264.7 [3] is less than 4.00; in the assay with RAW264.7 [4], less than 4.00; in assay [5], 5.14. Moreover, the inhibition at 10 µM with RAW264.7 [1] is 89.8%.

Turning to `COc1ccc(C2=NN(C(=O)c3ccc(Cl)cc3)C(c3cc(OC)c(OC)c(OC)c3)C2)c2c1C=CC(C)(C)O2` (configuration not stated), in the assay on RAW264.7 [1], the inhibition at 10 µM is 34.7%.

`COc1ccc(C2=NN(C(=O)c3ccccc3F)C(c3cc(OC)c(OC)c(OC)c3)C2)c2c1C=CC(C)(C)O2` (configuration not stated): the inhibition at 10 µM in the assay on RAW264.7 [1] was 27.8%.

For `COc1ccc(C2=NN(C(=O)CCl)C(c3cc(OC)c(OC)c(OC)c3)C2)c2c1C=CC(C)(C)O2` (configuration not stated), the pIC50 was 4.51 in the assay on RAW264.7 [3], 4.71 with RAW264.7 [4] and 5.60 in assay [5]. Also, the inhibition at 10 µM with RAW264.7 [1] worked out at 96.7%.

As for `CCS(=O)(=O)N1N=C(c2ccc(OC)c3c2OC(C)(C)C=C3)CC1c1cc(OC)c(OC)c(OC)c1` (configuration not stated), the inhibition at 10 µM in the assay on RAW264.7 [1] is 42.5%.

Regarding `COc1ccc(C2=NN(S(=O)(=O)c3ccc(C)cc3)C(c3cc(OC)c(OC)c(OC)c3)C2)c2c1C=CC(C)(C)O2` (configuration not stated), the inhibition at 10 µM in the assay on RAW264.7 [1] was found to be 35.9%.

For `COc1ccc(C2=NN(S(=O)(=O)c3ccc(F)cc3)C(c3cc(OC)c(OC)c(OC)c3)C2)c2c1C=CC(C)(C)O2` (configuration not stated), the inhibition at 10 µM in the assay with RAW264.7 [1] was 23.2%.

On to `COc1ccc(C2=NN(C(=O)c3ccc(F)cc3)C(c3cc(OC)c(OC)c(OC)c3)C2)c2c1C=CC(C)(C)O2` (configuration not stated), for which the inhibition at 10 µM in the assay with RAW264.7 [1] was 17.5%.

The record behind these values is ChEMBL document CHEMBL3421627, “Synthesis and biological evaluation of novel pyrazoline derivatives as potent anti-inflammatory agents” (Bioorg Med Chem Lett, 2015).
